According to PubChem BioAssay AID192 (DTP/NCI, 2004):
Where “and” joins values, the source holds several entries; their conditions need not be identical. Equal values may be shown once. Inconclusive results and toxic doses are left out. The calls were made as follows: active = survival T/C of 150% or more; inactive = T/C below 125% in these data.

Test system: BDF1 mice, B16 melanoma ip, median survival T/C
Assay: NCI In Vivo Anticancer Drug Screen. Data for tumor model B16 Melanoma (intraperitoneal) in B6D2F1 (BDF1) mice
Details: endpoint: median survival time, higher = longer survival
Experimental: The antitumor activity of compounds was measured in mice bearing transplantable tumors. Survival or tumor size were measured and the results are expressed as the measurement made in the treated group (T) divided by the measurement made in the vehicle treated control group (C). The tumor model used in this assay is B16 Melanoma (intraperitoneal) in B6D2F1 (BDF1) mice

[1] = dose: 16.0 mg/kg/injection, schedule: Q01DX009 (ip), vehicle: saline with Tween-80
[2] = dose: 100.0 mg/kg/injection, schedule: Q04DX003 (ip), vehicle: Klucel (hydroxypropylcellulose) (HPC)
[3] = dose: 200.0 mg/kg/injection, schedule: Q04DX003 (ip), vehicle: Klucel (hydroxypropylcellulose) (HPC)
[4] = dose: 400.0 mg/kg/injection, schedule: Q04DX003 (ip), vehicle: Klucel (hydroxypropylcellulose) (HPC)
[5] = dose: 200.0 mg/kg/injection, schedule: Q01DX009 (ip), vehicle: Klucel (hydroxypropylcellulose) (HPC)
[6] = dose: 50.0 mg/kg/injection, schedule: Q01DX009 (ip), vehicle: Klucel (hydroxypropylcellulose) (HPC)
[7] = dose: 25.0 mg/kg/injection, schedule: Q01DX009 (ip), vehicle: saline with Tween-80
[8] = dose: 50.0 mg/kg/injection, schedule: Q01DX009 (ip), vehicle: saline with Tween-80
[9] = dose: 100.0 mg/kg/injection, schedule: Q01DX009 (ip), vehicle: saline with Tween-80
[10] = dose: 200.0 mg/kg/injection, schedule: Q01DX009 (ip), vehicle: saline with Tween-80
[11] = dose: 10.0 mg/kg/injection, schedule: Q01DX009 (ip), vehicle: Klucel (hydroxypropylcellulose) (HPC)

Measured: T/C

CCOC(=O)C1(C(=O)OCC)COC(=O)C1
inactive: [1] 101 % of control | dose: 32.0 mg/kg/injection, schedule: Q01DX009 (ip), vehicle: saline with Tween-80 101 % of control | dose: 64.0 mg/kg/injection, schedule: Q01DX009 (ip), vehicle: saline with Tween-80 101 % of control | dose: 128.0 mg/kg/injection, schedule: Q01DX009 (ip), vehicle: saline with Tween-80 104 % of control | dose: 256.0 mg/kg/injection, schedule: Q01DX009 (ip), vehicle: saline with Tween-80 97 % of control

COc1ccc(NC(=O)O/N=C2\CN(S(=O)(=O)c3ccc(C)cc3)CCc3ccccc32)cc1
inactive: [2] 102 % of control | [3] 97 % of control | [4] 88 % of control

N=[N+]=CC(=O)OCC(N)C(=O)O (stereo not drawn)
inactive: dose: 1.5 mg/kg/injection, schedule: Q01DX009 (ip), vehicle: other 100 % of control | dose: 3.13 mg/kg/injection, schedule: Q01DX009 (ip), vehicle: saline 100 % of control | dose: 5.0 mg/kg/injection, schedule: Q04DX003 (ip), vehicle: water 102 % of control | dose: 6.25 mg/kg/injection, schedule: Q01DX009 (ip), vehicle: saline 102 % of control | dose: 10.0 mg/kg/injection, schedule: Q04DX003 (ip), vehicle: other 100 % of control | dose: 12.5 mg/kg/injection, schedule: Q01DX009 (ip), vehicle: saline 105 % of control | dose: 15.0 mg/kg/injection, schedule: Q04DX003 (ip), vehicle: water 115 % of control | dose: 20.0 mg/kg/injection, schedule: Q04DX003 (ip), vehicle: other 100 % of control | dose: 375.0 micrograms/kg/injection, schedule: Q01DX009 (ip), vehicle: water 118 % of control | dose: 750.0 micrograms/kg/injection, schedule: Q01DX009 (ip), vehicle: water 107 % of control

Cc1ccc(NC(=O)c2ccc(Cl)cc2Cl)cc1Cl
inactive: [2] 102 % of control | [3] 92 % of control | [4] 95 % of control

COc1ccc(C2=CC(=O)N(C(C)C)C2=O)cc1
inactive: dose: 20.0 mg/kg/injection, schedule: Q04DX003 (ip), vehicle: saline with Tween-80 109 % of control | dose: 40.0 mg/kg/injection, schedule: Q04DX003 (ip), vehicle: saline with Tween-80 113 % of control | dose: 80.0 mg/kg/injection, schedule: Q04DX003 (ip), vehicle: saline with Tween-80 111 % of control

CC(COC(=O)c1ccccc1)(COC(=O)c1ccccc1)COC(=O)c1ccccc1
inactive: dose: 100.0 mg/kg/injection, schedule: Q01DX009 (ip), vehicle: Klucel (hydroxypropylcellulose) (HPC) 110 % of control | [5] 107 % of control | dose: 400.0 mg/kg/injection, schedule: Q01DX009 (ip), vehicle: Klucel (hydroxypropylcellulose) (HPC) 100 % of control

Cc1ccc([N+](=O)[O-])c(O)c1[N+](=O)[O-]
inactive: [6] 100 % of control | [5] 90 % of control

Cc1ccc(C)c(C(=O)CCCCl)c1
inactive: [7] 118 % of control | [8] 97 % of control | [9] 113 % of control

NC(=O)CN1C(=O)c2ccccc2C1=O
inactive: [9] 97 % of control | [10] 104 % of control | dose: 400.0 mg/kg/injection, schedule: Q01DX009 (ip), vehicle: saline with Tween-80 97 % of control

O=C(O)CC(NC(=O)CP(=O)(O)O)C(=O)O.[NH-]C1CCCCC1[NH-].[Pt+2] (stereo not drawn)
inactive: dose: 0.4 mg/kg/injection, schedule: Q01DX009 (ip), vehicle: dextrose 122 % of control | dose: 3.0 mg/kg/injection, schedule: Q01DX009 (ip), vehicle: dextrose 123 % of control
active: dose: 0.78 mg/kg/injection, schedule: Q01DX009 (ip), vehicle: dextrose 154 % of control | dose: 1.56 mg/kg/injection, schedule: Q01DX009 (ip), vehicle: dextrose 165 % of control | dose: 3.2 mg/kg/injection, schedule: Q01DX009 (ip), vehicle: dextrose 163 % of control

CN(C)c1nc(N(C)C)nc(N(C)C)n1
inactive: [11] 108 % of control | dose: 12.5 mg/kg/injection, schedule: Q01DX009 (ip), vehicle: saline with Tween-80 99 % of control and 106 % of control and 107 % of control | dose: 20.0 mg/kg/injection, schedule: Q01DX009 (ip), vehicle: Klucel (hydroxypropylcellulose) (HPC) 94 % of control | dose: 20.0 mg/kg/injection, schedule: Q01DX009 (ip), vehicle: saline with Tween-80 88 % of control and 99 % of control | dose: 20.0 mg/kg/injection, schedule: Q02DX009 (ip), vehicle: saline with Tween-80 103 % of control and 107 % of control | dose: 25.0 mg/kg/injection, schedule: Q02DX009 (ip), vehicle: Klucel (hydroxypropylcellulose) (HPC) 97 % of control | dose: 40.0 mg/kg/injection, schedule: Q01DX009 (ip), vehicle: Klucel (hydroxypropylcellulose) (HPC) 100 % of control | dose: 40.0 mg/kg/injection, schedule: Q01DX009 (ip), vehicle: saline with Tween-80 93 % of control and 97 % of control | dose: 40.0 mg/kg/injection, schedule: Q02DX009 (ip), vehicle: saline with Tween-80 103 % of control and 112 % of control | dose: 50.0 mg/kg/injection, schedule: Q02DX009 (ip), vehicle: Klucel (hydroxypropylcellulose) (HPC) 96 % of control | dose: 80.0 mg/kg/injection, schedule: Q01DX009 (ip), vehicle: Klucel (hydroxypropylcellulose) (HPC) 100 % of control | dose: 80.0 mg/kg/injection, schedule: Q01DX009 (ip), vehicle: saline with Tween-80 100 % of control and 102 % of control | dose: 80.0 mg/kg/injection, schedule: Q02DX009 (ip), vehicle: saline with Tween-80 104 % of control and 109 % of control | dose: 100.0 mg/kg/injection, schedule: Q02DX009 (ip), vehicle: Klucel (hydroxypropylcellulose) (HPC) 101 % of control | dose: 160.0 mg/kg/injection, schedule: Q01DX009 (ip), vehicle: Klucel (hydroxypropylcellulose) (HPC) 91 % of control | dose: 160.0 mg/kg/injection, schedule: Q01DX009 (ip), vehicle: saline with Tween-80 111 % of control | dose: 160.0 mg/kg/injection, schedule: Q02DX009 (ip), vehicle: saline with Tween-80 107 % of control and 115 % of control | dose: 200.0 mg/kg/injection, schedule: Q02DX009 (ip), vehicle: Klucel (hydroxypropylcellulose) (HPC) 124 % of control

CN(C)CCCN1c2ccc(O)cc2Sc2ccc(Cl)cc21
inactive: dose: 3.1 mg/kg/injection, schedule: Q01DX009 (ip), vehicle: other 92 % of control | [8] 117 % of control | [9] 124 % of control

C=C1C(=O)OC2CC1C(OC(C)=O)CC1(C)OC1CCC1(C)OC1CCC2(C)O (stereo not drawn)
inactive: dose: 6.25 mg/kg/injection, schedule: Q01DX009 (ip), vehicle: Klucel (hydroxypropylcellulose) (HPC) 102 % of control | dose: 12.5 mg/kg/injection, schedule: Q01DX009 (ip), vehicle: Klucel (hydroxypropylcellulose) (HPC) 97 % of control | dose: 25.0 mg/kg/injection, schedule: Q01DX009 (ip), vehicle: Klucel (hydroxypropylcellulose) (HPC) 100 % of control | [6] 92 % of control

CCCCCC/C=C/[N+]([O-])=NC(COC)C(C)O (stereo not drawn)
inactive: dose: 5.0 mg/kg/injection, schedule: Q01DX009 (ip), vehicle: Klucel (hydroxypropylcellulose) (HPC) 107 % of control | [11] 105 % of control

Cc1cc(C)c(NC(=O)N(CCCl)N=O)cc1C
active: dose: 23.0 mg/kg/injection, schedule: Q01DX009 (ip), vehicle: saline 197 % of control | dose: 45.0 mg/kg/injection, schedule: Q01DX009 (ip), vehicle: saline 229 % of control

CCC(=O)Nc1cc(C(F)(F)F)ccc1Cl
inactive: [7] 100 % of control | [8] 101 % of control and 119 % of control | [9] 96 % of control and 105 % of control | [10] 105 % of control

CN(N=O)C(=O)Nc1c[nH]c(=O)[nH]c1=O
active: dose: 8.0 mg/kg/injection, schedule: Q01DX009 (ip), vehicle: saline with Tween-80 170 % of control | [1] 182 % of control | dose: 16.5 mg/kg/injection, schedule: Q01DX009 (ip), vehicle: saline with Tween-80 193 % of control | [7] 200 % of control | dose: 25.0 mg/kg/injection, schedule: Q01DX009 (ip), vehicle: saline 176 % of control | dose: 37.5 mg/kg/injection, schedule: Q01DX009 (ip), vehicle: saline with Tween-80 200 % of control
inactive: dose: 0.13 mg/kg/injection, schedule: Q01DX009 (ip), vehicle: saline with Tween-80 113 % of control | dose: 0.5 mg/kg/injection, schedule: Q01DX009 (ip), vehicle: saline with Tween-80 105 % of control | dose: 1.0 mg/kg/injection, schedule: Q01DX009 (ip), vehicle: saline with Tween-80 105 % of control | dose: 2.0 mg/kg/injection, schedule: Q01DX009 (ip), vehicle: saline with Tween-80 115 % of control
